“Also recorded” adds a separate entry of the source.
How the values were obtained:
[1] = system: PPARα target genes in the liver; experiment: Liver gene expression of PPARα targets in treated mice (RT-qPCR); format: in vivo
Source text: FIG. 6. […] Data in same order as triglyceride suppression (FIG. 5). apo CIII and LPL expression inversely correlate with triglyceride suppression for many, but not all, compounds. ACOX1 and Cyp4A3 expression correlate with triglyceride suppression for many, but not all, compounds.
The following oligonucleotide primers were used to amplify insertion sequences: for PPARα, FW-5′-[…]-3′ (SEQ ID NO:1) and Rev-5′-[…]-3′ (SEQ ID NO:2); for RXRα, FW-5′ […]-3′ (SEQ ID NO:3) and Rev-5′-[…]-3′ (SEQ ID NO:4). It has been well established that PPARα agonists fibrates reduce plasma triglycerides largely by inducing hepatic PPARα-mediated transcription of key proteins in hepatic long-chain fatty acid […], such as CPT1 (carnitine palmitoyltransferase-1). DY121 promoted the expression of PPARα, CPT1, and LPL involved in free fatty acid β-oxidation. The mRNA expressions of the PPARα-regulated genes CPT-Ia and ACADM were measured by real-time quantitative-PCR (RT-qPCR). […] A structural specificity of DY121 may be responsible for this regulation. PPARα is predominantly expressed in liver. PPARα modulates fatty acid catabolism in the liver. We next measured the mRNA expression of PPARα target genes in the liver. PPARα agonists exert their actions and attributed to the activation of PPARα which in turn effects an increase in LPL (lipoprotein lipase) gene expression and transrepression of apoC-III (apolipoprotein C-III). Activation of PPARα by its modulators can increase PPARα levels and activate PPARα pathways, leading to increased fatty-acid oxidation and reduction of oxidative stress. DY121 and its analogs induced the expression of PPARα-regulated genes involved in lipid, glucose, and cholesterol metabolism, such as ACOX1 (acyl-CoA oxidase) and Cyp4A3 (cytochrome P450 gene subfamily). Members of the CYP4A gene subfamily catalyze the oxygenation of biologically important fatty acids.
Next, we would like to investigate the therapeutic potential of DY121 to see if it could be candidate for treating NAFLD/NASH. Note that the pathogenesis of NASH has not yet been fully elucidated so far; however, the ‘two-hit’ theory is widely accepted. The first hit is the accumulation of fatty acids in the liver to cause steatosis. […] The newly produced PPARα agonist DY121 and its analogs, as well as WY100=WY14643 and GW3 (GW7647), were evaluated in C57Bl/6J female mice for their ability to alter serum triglyceride, liver gene expression, and glucose. Fibric acid derivatives (100 mg/kg/day) was used as a control, WY100 (WY14, 643, 100 mg/kg/day), GW3 (GW7647-positive control, 3 mg/kg/day), DY121 (˜3 mg/kg/day), respectively. […]

C57Bl/6J female mice = experiment: Serum triglyceride and lipid effects in C57Bl/6J female mice; format: in vivo
Experimental: FIG. 5. Ligand Screening Results: DY series compounds and controls administered once to C57Bl/6J female mice at 8 weeks of age. Mice were treated at 3 mg/kg for all compounds except WY14643 (100 mg/kg). Compounds gavaged at 0900; mice sacrificed 24 h later. Ordered by degree of effect on triglyceride lowering. According to our screening test, DY series compounds reduce triglycerides.
Next, we would like to investigate the therapeutic potential of DY121 to see if it could be candidate for treating NAFLD/NASH. Note that the pathogenesis of NASH has not yet been fully elucidated so far; however, the ‘two-hit’ theory is widely accepted. The first hit is the accumulation of fatty acids in the liver to cause steatosis. […] The newly produced PPARα agonist DY121 and its analogs, as well as WY100=WY14643 and GW3 (GW7647), were evaluated in C57Bl/6J female mice for their ability to alter serum triglyceride, liver gene expression, and glucose. Fibric acid derivatives (100 mg/kg/day) was used as a control, WY100 (WY14, 643, 100 mg/kg/day), GW3 (GW7647-positive control, 3 mg/kg/day), DY121 (˜3 mg/kg/day), respectively. DY series compounds and controls administered once to C57Bl/6J female mice at 8 weeks of age. Mice were treated at 3 mg/kg for all compounds except WY14643 (100 mg/kg).

In the case of `COc1ccc(Cn2c(CCCc3ccc(OC(C)(C)C(=O)O)cc3)nn(Cc3ccc(C)cc3)c2=O)cc1` [10a, 2-(4-{3-[4-(4-Methoxy-benzyl)-1-(4-methyl-benzyl)-5-oxo-4,5-dihydro-1H[1,2,4]triazol-3-yl]-propyl}-phenoxy)-2-methyl-propionic acid], the “expression of PPARα, CPT1, and LPL” value ([1]; RT-qPCR) is reported as “promoted”, the “expression of PPARα-regulated genes such as ACOX1 and Cyp4A3” value ([1]; RT-qPCR) is reported as “induced” and the “liver CPT-Ia expression” value ([1]; chronic (>3 d) treatment (FIG. 17)) is reported as “upregulated”. For the same compound, the LPL expression ([1]; liver, chronic treatment (FIG. 11)) was “enhanced expression of LPL”, the ACOX1 expression ([1]; liver, chronic treatment (FIG. 12)) was “enhanced by PPARα activation, most consistently” and the Cyp4A3 expression ([1]; liver, chronic treatment (FIG. 13)) was “consistently”. The apoCIII expression ([1]; liver, chronic treatment up to 7 days (FIG. 11)) was “significantly suppressed expression of apoCIII at each time point”, the ACADM expression ([1]; time course (FIG. 18)) was “upregulates” and the “CYP4A3 mRNA in the liver” value ([1]; wild-type and PPARα knockout mice) was “enhanced levels of CYP4A3 mRNA in the liver of wild-type but not PPARα knockout mice”. The “hepatic TG accumulation” value (C57Bl/6J female mice; 3 mg/kg DY121, WY14643 100 mg/kg) was “suppressed; also recorded: more apparent” and the “serum triglyceride (TG) concentrations” value (C57Bl/6J female mice; DY121-treated mice vs control) was “significantly decreased”.

Source: patent publication US20190077774A1, “PEROXISOME PROLIFERATOR-ACTIVATED RECEPTOR AGONISTS” (City of Hope, priority 2017, published 2019)
